{
  "source": "paper PMC7827406",
  "about": "“Structure–Activity Relationship (SAR) Study of Spautin-1 to Entail the Discovery of Novel NEK4 Inhibitors” (International Journal of Molecular Sciences, 2021)",
  "experiment_in_all_cases": "biochemical",
  "set-up_in_all_cases": "Eurofins KinaseProfiler full panel at Km ATP, residual kinase activity (%) relative to DMSO",
  "key": {"[1]": {"molecular_target": "Blk(m) (Mus musculus, UniProt P16277)", "method_in_brief": "(§1)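 Two 10 µM single-concentration screens were run: a competition-binding screen, in which DNA-tagged kinase bound to immobilized ligands was quantified by qPCR, and a radiometric activity panel at Km ATP. Each is expressed as residual kinase activity (%).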"}, "[2]": {"molecular_target": "Fyn(h) (Homo sapiens, UniProt P06241)", "sequence (P06241 whole entry)": "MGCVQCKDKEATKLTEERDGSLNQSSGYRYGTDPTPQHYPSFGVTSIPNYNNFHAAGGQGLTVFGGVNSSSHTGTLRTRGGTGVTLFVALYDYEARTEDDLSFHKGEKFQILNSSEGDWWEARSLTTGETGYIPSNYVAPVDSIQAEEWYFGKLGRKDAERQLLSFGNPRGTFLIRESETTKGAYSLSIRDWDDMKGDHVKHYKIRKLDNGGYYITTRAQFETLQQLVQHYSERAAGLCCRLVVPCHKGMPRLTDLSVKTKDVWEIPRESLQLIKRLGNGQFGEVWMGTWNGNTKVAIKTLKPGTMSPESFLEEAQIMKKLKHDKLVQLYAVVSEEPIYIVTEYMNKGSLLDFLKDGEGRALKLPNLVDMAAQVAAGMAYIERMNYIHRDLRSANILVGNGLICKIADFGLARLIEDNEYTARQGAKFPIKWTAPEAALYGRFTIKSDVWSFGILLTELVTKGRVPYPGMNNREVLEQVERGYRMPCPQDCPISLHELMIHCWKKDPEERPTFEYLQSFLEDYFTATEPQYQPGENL", "method_in_brief": "as §1"}, "[3]": {"molecular_target": "LTK(h) (Homo sapiens, UniProt P29376)", "sequence (P29376 whole entry)": "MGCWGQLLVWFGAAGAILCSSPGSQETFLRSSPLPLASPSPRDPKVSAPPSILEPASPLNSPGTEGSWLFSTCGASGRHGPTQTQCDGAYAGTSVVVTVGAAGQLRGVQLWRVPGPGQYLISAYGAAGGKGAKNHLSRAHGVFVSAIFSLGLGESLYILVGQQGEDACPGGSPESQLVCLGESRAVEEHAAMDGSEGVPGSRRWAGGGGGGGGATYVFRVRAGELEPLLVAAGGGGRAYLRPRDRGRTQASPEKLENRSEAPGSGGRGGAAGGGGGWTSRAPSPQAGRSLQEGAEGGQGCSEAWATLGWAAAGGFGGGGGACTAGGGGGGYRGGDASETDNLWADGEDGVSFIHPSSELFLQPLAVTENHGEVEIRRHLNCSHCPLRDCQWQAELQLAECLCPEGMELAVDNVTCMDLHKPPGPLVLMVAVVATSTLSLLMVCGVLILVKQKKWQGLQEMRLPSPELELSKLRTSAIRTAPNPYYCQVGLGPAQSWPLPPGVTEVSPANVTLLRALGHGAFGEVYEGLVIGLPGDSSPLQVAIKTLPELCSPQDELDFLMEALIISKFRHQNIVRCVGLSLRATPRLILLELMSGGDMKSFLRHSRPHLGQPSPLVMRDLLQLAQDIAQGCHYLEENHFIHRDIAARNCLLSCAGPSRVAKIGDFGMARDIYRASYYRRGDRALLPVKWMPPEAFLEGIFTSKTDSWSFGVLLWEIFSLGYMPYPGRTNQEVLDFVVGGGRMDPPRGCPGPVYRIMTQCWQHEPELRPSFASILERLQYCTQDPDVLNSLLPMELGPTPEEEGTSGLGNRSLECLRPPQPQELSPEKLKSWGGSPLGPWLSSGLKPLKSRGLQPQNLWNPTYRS", "method_in_brief": "as §1"}, "[4]": {"molecular_target": "T1, MAPKAP-K3(h) (Homo sapiens, UniProt Q16644)", "T1 construct": "gene MAPKAPK3", "T1 sequence (Q16644 whole entry)": "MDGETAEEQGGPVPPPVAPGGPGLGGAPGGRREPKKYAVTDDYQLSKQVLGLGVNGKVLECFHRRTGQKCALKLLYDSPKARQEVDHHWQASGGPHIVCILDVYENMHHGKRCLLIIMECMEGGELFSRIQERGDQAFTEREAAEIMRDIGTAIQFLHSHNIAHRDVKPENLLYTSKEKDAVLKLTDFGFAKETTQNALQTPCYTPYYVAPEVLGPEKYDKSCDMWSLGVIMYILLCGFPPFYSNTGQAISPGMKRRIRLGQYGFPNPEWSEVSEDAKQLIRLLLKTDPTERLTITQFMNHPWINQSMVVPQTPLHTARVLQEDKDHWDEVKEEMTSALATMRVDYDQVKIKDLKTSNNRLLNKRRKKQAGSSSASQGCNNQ", "method_in_brief": "as §1"}, "[5]": {"molecular_target": "T2, MKK4(m) (Mus musculus, UniProt P47809)", "T2 construct": "gene Map2k4", "T2 sequence (P47809 1-397)": "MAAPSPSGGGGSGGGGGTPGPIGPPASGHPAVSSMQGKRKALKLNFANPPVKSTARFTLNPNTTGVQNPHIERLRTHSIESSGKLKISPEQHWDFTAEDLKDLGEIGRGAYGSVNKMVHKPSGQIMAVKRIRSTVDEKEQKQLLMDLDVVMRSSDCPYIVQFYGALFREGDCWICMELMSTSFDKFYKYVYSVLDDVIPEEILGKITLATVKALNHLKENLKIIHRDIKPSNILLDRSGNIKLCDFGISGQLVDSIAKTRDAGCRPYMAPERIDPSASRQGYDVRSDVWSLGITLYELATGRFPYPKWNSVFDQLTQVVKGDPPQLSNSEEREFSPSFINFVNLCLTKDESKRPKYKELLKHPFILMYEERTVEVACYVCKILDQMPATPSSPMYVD", "method_in_brief": "as §1"}, "[6]": {"molecular_target": "T3, MRCKβ(h) (Homo sapiens, UniProt Q9Y5S2)", "T3 construct": "gene CDC42BPB", "T3 sequence (Q9Y5S2 whole entry)": "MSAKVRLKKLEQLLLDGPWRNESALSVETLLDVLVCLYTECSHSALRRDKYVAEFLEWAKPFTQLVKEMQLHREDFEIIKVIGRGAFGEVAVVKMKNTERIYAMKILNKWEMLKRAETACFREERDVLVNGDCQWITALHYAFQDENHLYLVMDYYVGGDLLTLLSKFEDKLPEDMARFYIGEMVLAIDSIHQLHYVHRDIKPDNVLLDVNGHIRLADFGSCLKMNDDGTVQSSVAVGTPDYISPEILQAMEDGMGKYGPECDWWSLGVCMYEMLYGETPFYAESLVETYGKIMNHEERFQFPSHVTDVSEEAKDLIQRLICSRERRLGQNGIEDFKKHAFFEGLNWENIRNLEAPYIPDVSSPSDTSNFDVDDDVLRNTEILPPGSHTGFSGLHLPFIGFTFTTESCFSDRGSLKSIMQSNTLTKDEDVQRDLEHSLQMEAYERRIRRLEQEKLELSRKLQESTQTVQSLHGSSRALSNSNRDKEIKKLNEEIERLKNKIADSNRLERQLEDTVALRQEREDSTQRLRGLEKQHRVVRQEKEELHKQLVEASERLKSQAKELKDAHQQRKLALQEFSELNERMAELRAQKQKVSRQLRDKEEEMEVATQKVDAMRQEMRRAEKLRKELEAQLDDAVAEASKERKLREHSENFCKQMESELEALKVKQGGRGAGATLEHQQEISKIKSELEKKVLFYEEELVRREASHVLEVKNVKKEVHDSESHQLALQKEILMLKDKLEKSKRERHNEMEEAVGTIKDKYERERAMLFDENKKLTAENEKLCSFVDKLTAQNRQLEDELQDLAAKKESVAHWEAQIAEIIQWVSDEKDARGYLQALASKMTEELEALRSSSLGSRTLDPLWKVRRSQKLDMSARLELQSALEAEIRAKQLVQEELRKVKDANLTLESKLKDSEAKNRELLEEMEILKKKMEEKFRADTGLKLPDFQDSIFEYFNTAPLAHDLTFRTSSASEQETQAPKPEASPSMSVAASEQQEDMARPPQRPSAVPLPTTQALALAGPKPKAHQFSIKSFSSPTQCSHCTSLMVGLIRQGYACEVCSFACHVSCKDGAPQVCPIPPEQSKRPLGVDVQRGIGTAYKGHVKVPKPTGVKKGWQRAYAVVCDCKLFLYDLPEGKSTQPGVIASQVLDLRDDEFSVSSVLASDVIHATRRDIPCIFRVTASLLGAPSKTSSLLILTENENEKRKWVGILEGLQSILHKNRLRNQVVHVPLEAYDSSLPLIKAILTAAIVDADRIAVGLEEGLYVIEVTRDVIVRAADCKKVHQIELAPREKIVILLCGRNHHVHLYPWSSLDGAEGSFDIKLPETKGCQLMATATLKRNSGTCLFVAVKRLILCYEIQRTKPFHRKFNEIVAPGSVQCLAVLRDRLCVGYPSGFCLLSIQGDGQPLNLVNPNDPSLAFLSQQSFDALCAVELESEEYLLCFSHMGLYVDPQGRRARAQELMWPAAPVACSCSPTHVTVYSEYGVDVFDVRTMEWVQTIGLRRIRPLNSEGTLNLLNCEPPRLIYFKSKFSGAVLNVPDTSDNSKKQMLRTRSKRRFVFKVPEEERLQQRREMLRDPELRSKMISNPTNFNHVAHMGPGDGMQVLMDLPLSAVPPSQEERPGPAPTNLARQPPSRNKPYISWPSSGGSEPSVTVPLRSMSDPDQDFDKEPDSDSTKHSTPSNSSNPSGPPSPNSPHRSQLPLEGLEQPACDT", "method_in_brief": "as §1"}, "[7]": {"molecular_target": "T4, Mnk2(h) (Homo sapiens, UniProt Q9HBH9)", "T4 construct": "gene MKNK2", "T4 sequence (Q9HBH9 whole entry)": "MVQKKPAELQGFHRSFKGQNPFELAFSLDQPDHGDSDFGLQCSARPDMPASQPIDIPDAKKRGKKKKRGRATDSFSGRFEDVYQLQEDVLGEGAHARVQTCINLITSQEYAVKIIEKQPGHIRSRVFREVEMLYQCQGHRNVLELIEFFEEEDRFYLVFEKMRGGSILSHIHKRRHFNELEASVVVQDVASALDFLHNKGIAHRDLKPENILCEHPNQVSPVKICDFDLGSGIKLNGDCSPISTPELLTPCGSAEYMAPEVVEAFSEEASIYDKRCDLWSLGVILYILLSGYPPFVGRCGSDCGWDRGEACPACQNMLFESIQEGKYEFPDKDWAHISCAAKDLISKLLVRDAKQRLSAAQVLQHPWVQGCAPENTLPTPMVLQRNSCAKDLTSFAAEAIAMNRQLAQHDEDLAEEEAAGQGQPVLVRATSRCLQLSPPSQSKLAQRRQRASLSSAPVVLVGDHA", "method_in_brief": "as §1"}, "[8]": {"molecular_target": "T5, SNRK(h) (Homo sapiens, UniProt Q9NRH2)", "T5 sequence (Q9NRH2 1-765)": "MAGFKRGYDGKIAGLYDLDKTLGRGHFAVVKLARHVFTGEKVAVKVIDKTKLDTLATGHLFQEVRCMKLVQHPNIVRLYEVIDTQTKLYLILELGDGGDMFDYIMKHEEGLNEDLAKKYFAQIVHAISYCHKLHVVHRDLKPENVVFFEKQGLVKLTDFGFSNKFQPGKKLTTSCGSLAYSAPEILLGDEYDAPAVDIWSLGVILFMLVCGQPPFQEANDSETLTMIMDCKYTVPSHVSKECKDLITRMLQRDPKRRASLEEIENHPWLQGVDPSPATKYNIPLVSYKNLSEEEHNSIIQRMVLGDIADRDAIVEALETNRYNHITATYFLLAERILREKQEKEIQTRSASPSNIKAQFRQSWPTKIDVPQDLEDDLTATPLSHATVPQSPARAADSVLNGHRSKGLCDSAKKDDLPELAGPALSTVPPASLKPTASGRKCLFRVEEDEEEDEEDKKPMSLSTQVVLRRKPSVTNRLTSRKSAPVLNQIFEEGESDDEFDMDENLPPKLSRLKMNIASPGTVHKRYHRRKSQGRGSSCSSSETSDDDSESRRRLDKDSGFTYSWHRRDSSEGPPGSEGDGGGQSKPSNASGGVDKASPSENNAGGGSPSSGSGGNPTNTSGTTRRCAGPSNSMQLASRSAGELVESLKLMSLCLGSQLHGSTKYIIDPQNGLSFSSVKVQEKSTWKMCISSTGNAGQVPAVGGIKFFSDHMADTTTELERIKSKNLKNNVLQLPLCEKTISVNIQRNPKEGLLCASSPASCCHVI", "method_in_brief": "as §1"}, "[9]": {"molecular_target": "STK32B(h) (Homo sapiens, UniProt Q9NY57)", "sequence (Q9NY57 whole entry)": "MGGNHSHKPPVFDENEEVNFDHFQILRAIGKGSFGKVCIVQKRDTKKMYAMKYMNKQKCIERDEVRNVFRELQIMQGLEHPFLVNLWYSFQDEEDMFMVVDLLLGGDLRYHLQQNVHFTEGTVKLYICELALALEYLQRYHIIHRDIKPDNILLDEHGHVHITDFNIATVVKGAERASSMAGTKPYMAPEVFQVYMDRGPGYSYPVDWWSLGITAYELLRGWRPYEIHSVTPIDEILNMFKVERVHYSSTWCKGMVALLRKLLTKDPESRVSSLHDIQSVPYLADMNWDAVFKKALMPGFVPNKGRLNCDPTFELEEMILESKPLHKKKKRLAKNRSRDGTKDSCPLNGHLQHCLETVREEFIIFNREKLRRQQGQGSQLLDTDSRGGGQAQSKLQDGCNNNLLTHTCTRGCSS", "method_in_brief": "as §1"}, "[10]": {"molecular_target": "STK32C(h) (Homo sapiens, UniProt Q86UX6)", "sequence (Q86UX6 whole entry)": "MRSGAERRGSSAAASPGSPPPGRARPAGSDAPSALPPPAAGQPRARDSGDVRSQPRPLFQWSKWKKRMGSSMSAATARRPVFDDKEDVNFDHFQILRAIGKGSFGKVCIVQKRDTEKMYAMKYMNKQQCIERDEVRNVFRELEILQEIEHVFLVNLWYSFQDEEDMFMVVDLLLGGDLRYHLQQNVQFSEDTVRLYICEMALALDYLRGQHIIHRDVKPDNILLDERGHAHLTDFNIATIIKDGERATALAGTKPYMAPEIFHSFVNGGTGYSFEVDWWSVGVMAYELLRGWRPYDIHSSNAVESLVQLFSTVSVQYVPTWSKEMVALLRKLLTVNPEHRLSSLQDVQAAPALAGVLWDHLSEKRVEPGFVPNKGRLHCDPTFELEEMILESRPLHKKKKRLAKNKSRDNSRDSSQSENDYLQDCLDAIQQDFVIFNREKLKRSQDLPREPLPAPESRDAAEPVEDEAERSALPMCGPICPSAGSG", "method_in_brief": "as §1"}, "[11]": {"settings": "read-out: Residual activity (%) Spautin-1 5aa"}, "[12]": {"settings": "read-out: Residual activity (%) 5as"}, "[13]": {"settings": "read-out: Residual activity (%) 5at"}, "[14]": {"settings": "read-out: Residual activity (%) 5ay"}},
  "note": "Like-named read-outs stand apart in the source and are kept apart here.",
  "data": [
    {"smiles": "Fc1ccc(CNc2ncnc3ccc(F)cc23)cc1", "note": "[5aa, 6-Fluoro-N-(4-fluorobenzyl)-4-Quinazolinamine]", "values": [
      {"measurement": "remaining activity at 10 µM", "setting": "[1]; [11]", "value": 91, "unit": "%"},
      {"measurement": "remaining activity at 10 µM", "setting": "[2]; [11]", "value": 63, "unit": "%"},
      {"measurement": "remaining activity at 10 µM", "setting": "[3]; [11]", "value": 88, "unit": "%"},
      {"measurement": "remaining activity at 10 µM", "setting": "[4]; [11]", "value": 95, "unit": "%"},
      {"measurement": "remaining activity at 10 µM", "setting": "[5]; [11]", "value": 105, "unit": "%"},
      {"measurement": "remaining activity at 10 µM", "setting": "[6]; [11]", "value": 80, "unit": "%"},
      {"measurement": "remaining activity at 10 µM", "setting": "[7]; [11]", "value": 93, "unit": "%"},
      {"measurement": "remaining activity at 10 µM", "setting": "[8]; [11]", "value": 103, "unit": "%"},
      {"measurement": "remaining activity at 10 µM", "setting": "[9]; [11]", "value": 95, "unit": "%"},
      {"measurement": "remaining activity at 10 µM", "setting": "[10]; [11]", "value": 106, "unit": "%"}
    ]},
    {"smiles": "Fc1ccc(CCNc2ncnc3ccc(F)cc23)cc1", "note": "[5as, 6-Fluoro-N-[2-(4-Fluorophenyl)Ethyl]-4-Quinazolinamine]", "values": [
      {"measurement": "remaining activity at 10 µM", "setting": "[1]; [12]", "value": 100, "unit": "%"},
      {"measurement": "remaining activity at 10 µM", "setting": "[2]; [12]", "value": 61, "unit": "%"},
      {"measurement": "remaining activity at 10 µM", "setting": "[3]; [12]", "value": 76, "unit": "%"},
      {"measurement": "remaining activity at 10 µM", "setting": "[4]; [12]", "value": 66, "unit": "%"},
      {"measurement": "remaining activity at 10 µM", "setting": "[5]; [12]", "value": 112, "unit": "%"},
      {"measurement": "remaining activity at 10 µM", "setting": "[6]; [12]", "value": 84, "unit": "%"},
      {"measurement": "remaining activity at 10 µM", "setting": "[7]; [12]", "value": 83, "unit": "%"},
      {"measurement": "remaining activity at 10 µM", "setting": "[8]; [12]", "value": 104, "unit": "%"},
      {"measurement": "remaining activity at 10 µM", "setting": "[9]; [12]", "value": 92, "unit": "%"},
      {"measurement": "remaining activity at 10 µM", "setting": "[10]; [12]", "value": 95, "unit": "%"}
    ]},
    {"smiles": "Fc1ccc2ncnc(NCCc3ccc(Cl)cc3)c2c1", "note": "[5at, N-[2-(4-Chlorophenyl)Ethyl]-6-Fluoro-4-Quinazolinamine]", "values": [
      {"measurement": "remaining activity at 10 µM", "setting": "[1]; [13]", "value": 98, "unit": "%"},
      {"measurement": "remaining activity at 10 µM", "setting": "[2]; [13]", "value": 75, "unit": "%"},
      {"measurement": "remaining activity at 10 µM", "setting": "[3]; [13]", "value": 74, "unit": "%"},
      {"measurement": "remaining activity at 10 µM", "setting": "[4]; [13]", "value": 83, "unit": "%"},
      {"measurement": "remaining activity at 10 µM", "setting": "[5]; [13]", "value": 118, "unit": "%"},
      {"measurement": "remaining activity at 10 µM", "setting": "[6]; [13]", "value": 103, "unit": "%"},
      {"measurement": "remaining activity at 10 µM", "setting": "[7]; [13]", "value": 80, "unit": "%"},
      {"measurement": "remaining activity at 10 µM", "setting": "[8]; [13]", "value": 103, "unit": "%"},
      {"measurement": "remaining activity at 10 µM", "setting": "[9]; [13]", "value": 97, "unit": "%"},
      {"measurement": "remaining activity at 10 µM", "setting": "[10]; [13]", "value": 106, "unit": "%"}
    ]},
    {"smiles": "COc1ccc2ncnc(Nc3cccc(F)c3)c2c1", "note": "[5ay, N-(3-Fluorophenyl)-6-Methoxy-4-Quinazolinamine]", "values": [
      {"measurement": "remaining activity at 10 µM", "setting": "[1]; [14]", "value": 102, "unit": "%"},
      {"measurement": "remaining activity at 10 µM", "setting": "[2]; [14]", "value": 66, "unit": "%"},
      {"measurement": "remaining activity at 10 µM", "setting": "[3]; [14]", "value": 76, "unit": "%"},
      {"measurement": "remaining activity at 10 µM", "setting": "[4]; [14]", "value": 78, "unit": "%"},
      {"measurement": "remaining activity at 10 µM", "setting": "[5]; [14]", "value": 110, "unit": "%"},
      {"measurement": "remaining activity at 10 µM", "setting": "[6]; [14]", "value": 79, "unit": "%"},
      {"measurement": "remaining activity at 10 µM", "setting": "[7]; [14]", "value": 19, "unit": "%"},
      {"measurement": "remaining activity at 10 µM", "setting": "[8]; [14]", "value": 79, "unit": "%"},
      {"measurement": "remaining activity at 10 µM", "setting": "[9]; [14]", "value": 93, "unit": "%"},
      {"measurement": "remaining activity at 10 µM", "setting": "[10]; [14]", "value": 102, "unit": "%"}
    ]}
  ]
}
